According to patent US10414774B2, “Compound useful for altering the levels of bile acids for the treatment of diabetes and cardiometabolc disease” (Merck Sharp & Dohme Corp., priority 2016, dated 2019):

Molecular target: T1, Human CYP8B1 (Homo sapiens, UniProt Q9UNU6)
T1 sequence (Q9UNU6 1-501): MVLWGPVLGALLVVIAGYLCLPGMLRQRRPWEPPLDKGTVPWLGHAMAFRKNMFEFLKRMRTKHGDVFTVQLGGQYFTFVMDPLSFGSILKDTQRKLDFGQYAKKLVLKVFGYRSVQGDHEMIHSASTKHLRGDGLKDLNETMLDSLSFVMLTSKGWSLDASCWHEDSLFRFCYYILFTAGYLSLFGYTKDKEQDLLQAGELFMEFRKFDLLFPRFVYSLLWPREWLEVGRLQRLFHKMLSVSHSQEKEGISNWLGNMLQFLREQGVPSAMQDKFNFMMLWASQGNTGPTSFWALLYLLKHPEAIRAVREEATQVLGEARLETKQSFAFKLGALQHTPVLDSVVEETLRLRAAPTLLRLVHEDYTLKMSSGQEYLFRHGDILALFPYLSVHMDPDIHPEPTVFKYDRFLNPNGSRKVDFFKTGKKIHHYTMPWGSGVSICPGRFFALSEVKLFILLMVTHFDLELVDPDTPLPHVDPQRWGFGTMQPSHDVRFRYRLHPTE
Experimental: Human CYP8B1 Liver Microsome Assay
To a 384 well polypropylene plate (Corning 3656), 250 nl of inhibitor in 100% DMSO (1.25% final DMSO concentration) was pre-plated using an Echo liquid handler (Labcyte Inc.). Human liver microsomes (Xenotech) were diluted in of 0.1 M phosphate buffer, pH 7.4, at a concentration of 65 μg/ml and 15 μL was added to the 384 well plate. The plates were incubated at ambient room temperature for 30 minutes. After pre-incubation with inhibitor, the reaction was initiated by adding 5 μl of substrate solution (4.0 μM 7a-hydroxy-4-cholesten-3-one (Toronto Research Chemicals), 2 mM of NADPH (Sigma), 0.1 M phosphate buffer (pH 7.4). The reaction was carried out for 45 minutes at ambient room temperature and was quenched by the addition of 50 μl of acetonitrile+0.1% vol/vol formic acid (FA)+300 nM 7α-hydroxy-4-cholesten-3-one-d7 (Toronto Research Chemicals). The plates were sealed and centrifuged at 3000 rpm for 5 minutes. Plates were loaded onto the Agilent RapidFire RF300 HTMS system, wherein samples were sipped for 600 ms, and the sip sensor detection signals the diversion of sample from the loop onto a C4 solid phase extraction (SPE) cartridge, where salts are washed off for 2500 ms with a mobile phase of water with 0.1% vol/vol FA at a flow rate of 1.5 ml/min. The column path was switched, and the sample was eluted off the cartridge and flowed into the mass spectrometer for 3000 ms with a mobile phase of acetonitrile and 0.1% vol/vol FA at a flow rate of 1.25 ml/min. The aspirator tip was washed separately with water and acetonitrile between sample aspirations (each for 600 ms) to minimize carryover contamination. Mass spectrometry was carried out using a Sciex API4000 triple quadrupole mass spectrometer (Applied Biosystems, Concord, ON, Canada) equipped with electrospray ionization (ESI) operated in the positive-ion mode. The product 7α,12α-dihydroxy-4-cholesten-3-one and internal standard 7α-hydroxy-4-cholsten-3-one-d7 were detected using multiple reaction monitoring (MRM) with Q1/Q3 transitions at m/z 417.3 to 381.3 and m/z 408.3 to 390.3, respectively, with a dwell time of 100 ms and a collision energy of 24 V for each transition. The mass spectrometer used an ESI voltage of 5000 V and a source temperature of 650° C. Extracted ion chromatograms for each transition were integrated and processed using the RapidFire Integrator software. The data for each well were normalized by monitoring product conversion with the ratio of AUCproduct/(AUCinternal standard). The data was then fitted to a four parameter logistic fit using ActivityBase Software to calculate an IC50 of the inhibitor.

6-chloro-4-[(3S,4S)-4-(6,7-dihydro[1,2,3]triazolo[1,5-a]pyrazin-5-(4H)-ylcarbonyl)-3-methylpiperidin-1-yl]-2-methylquinoline-3-carbonitrile [Example 94]
IC50: 4.5 µM
